The target of series [1] is Tyrosine-protein kinase JAK1 (Homo sapiens, UniProt P23458). The series can be described thus: Inhibition of JAK1 (unknown origin) incubated for 45 to 120 mins in presence of ATP by Kinase-Glo luminescent assay. In general terms: Kinase-Glo measures the ATP left after a reaction by luminescence.
The target of series [2] is Tyrosine-protein kinase JAK2 (Homo sapiens, UniProt O60674).
Description: Inhibition of JAK2 (unknown origin) incubated for 45 to 120 mins in presence of ATP by Kinase-Glo luminescent assay
In series [3] the target is T1, Tyrosine-protein kinase JAK3 (Homo sapiens, UniProt P52333).
T1 sequence (P52333 whole entry): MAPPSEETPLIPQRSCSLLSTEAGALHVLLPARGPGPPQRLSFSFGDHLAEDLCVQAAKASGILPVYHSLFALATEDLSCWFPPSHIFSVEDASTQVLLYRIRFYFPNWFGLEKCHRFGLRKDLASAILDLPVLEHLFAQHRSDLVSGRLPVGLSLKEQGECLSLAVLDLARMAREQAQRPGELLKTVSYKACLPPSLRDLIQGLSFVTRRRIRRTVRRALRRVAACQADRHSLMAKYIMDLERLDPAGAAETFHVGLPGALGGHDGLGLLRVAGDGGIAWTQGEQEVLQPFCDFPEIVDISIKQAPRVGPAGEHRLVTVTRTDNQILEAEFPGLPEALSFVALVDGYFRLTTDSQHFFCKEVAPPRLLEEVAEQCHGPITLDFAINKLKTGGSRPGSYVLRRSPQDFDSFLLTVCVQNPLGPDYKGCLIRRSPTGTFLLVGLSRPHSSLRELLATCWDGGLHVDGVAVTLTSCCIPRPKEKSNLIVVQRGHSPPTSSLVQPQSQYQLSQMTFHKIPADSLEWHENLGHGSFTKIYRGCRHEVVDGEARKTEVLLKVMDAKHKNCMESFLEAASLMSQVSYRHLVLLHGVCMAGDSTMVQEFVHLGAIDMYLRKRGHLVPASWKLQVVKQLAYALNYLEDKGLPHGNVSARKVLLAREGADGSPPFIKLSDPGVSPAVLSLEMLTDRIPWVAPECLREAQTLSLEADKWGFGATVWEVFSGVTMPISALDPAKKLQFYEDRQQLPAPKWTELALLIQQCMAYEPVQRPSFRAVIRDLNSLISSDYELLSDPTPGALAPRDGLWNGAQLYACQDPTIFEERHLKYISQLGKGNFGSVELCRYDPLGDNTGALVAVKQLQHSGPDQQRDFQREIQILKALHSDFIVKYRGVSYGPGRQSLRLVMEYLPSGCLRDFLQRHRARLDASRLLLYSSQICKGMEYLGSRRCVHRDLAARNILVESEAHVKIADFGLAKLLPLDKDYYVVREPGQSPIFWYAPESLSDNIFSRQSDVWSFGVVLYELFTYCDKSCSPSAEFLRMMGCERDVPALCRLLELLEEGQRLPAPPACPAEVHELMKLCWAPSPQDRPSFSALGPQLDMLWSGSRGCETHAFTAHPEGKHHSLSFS
Description: Inhibition of JAK3 (unknown origin) incubated for 45 to 120 mins in presence of ATP by Kinase-Glo luminescent assay

Series [4] has as its target Non-receptor tyrosine-protein kinase TYK2 (Homo sapiens, UniProt P29597).
Description: Inhibition of TYK2 (unknown origin) incubated for 45 to 120 mins in presence of ATP by Kinase-Glo luminescent assay
The target in another series is Aurora kinase B (Homo sapiens, UniProt Q96GD4).
The target in series [5] is Tyrosine-protein kinase ABL1 (Homo sapiens, UniProt P00519).
Tyrosine-protein kinase ABL1, sequence (P00519 whole entry): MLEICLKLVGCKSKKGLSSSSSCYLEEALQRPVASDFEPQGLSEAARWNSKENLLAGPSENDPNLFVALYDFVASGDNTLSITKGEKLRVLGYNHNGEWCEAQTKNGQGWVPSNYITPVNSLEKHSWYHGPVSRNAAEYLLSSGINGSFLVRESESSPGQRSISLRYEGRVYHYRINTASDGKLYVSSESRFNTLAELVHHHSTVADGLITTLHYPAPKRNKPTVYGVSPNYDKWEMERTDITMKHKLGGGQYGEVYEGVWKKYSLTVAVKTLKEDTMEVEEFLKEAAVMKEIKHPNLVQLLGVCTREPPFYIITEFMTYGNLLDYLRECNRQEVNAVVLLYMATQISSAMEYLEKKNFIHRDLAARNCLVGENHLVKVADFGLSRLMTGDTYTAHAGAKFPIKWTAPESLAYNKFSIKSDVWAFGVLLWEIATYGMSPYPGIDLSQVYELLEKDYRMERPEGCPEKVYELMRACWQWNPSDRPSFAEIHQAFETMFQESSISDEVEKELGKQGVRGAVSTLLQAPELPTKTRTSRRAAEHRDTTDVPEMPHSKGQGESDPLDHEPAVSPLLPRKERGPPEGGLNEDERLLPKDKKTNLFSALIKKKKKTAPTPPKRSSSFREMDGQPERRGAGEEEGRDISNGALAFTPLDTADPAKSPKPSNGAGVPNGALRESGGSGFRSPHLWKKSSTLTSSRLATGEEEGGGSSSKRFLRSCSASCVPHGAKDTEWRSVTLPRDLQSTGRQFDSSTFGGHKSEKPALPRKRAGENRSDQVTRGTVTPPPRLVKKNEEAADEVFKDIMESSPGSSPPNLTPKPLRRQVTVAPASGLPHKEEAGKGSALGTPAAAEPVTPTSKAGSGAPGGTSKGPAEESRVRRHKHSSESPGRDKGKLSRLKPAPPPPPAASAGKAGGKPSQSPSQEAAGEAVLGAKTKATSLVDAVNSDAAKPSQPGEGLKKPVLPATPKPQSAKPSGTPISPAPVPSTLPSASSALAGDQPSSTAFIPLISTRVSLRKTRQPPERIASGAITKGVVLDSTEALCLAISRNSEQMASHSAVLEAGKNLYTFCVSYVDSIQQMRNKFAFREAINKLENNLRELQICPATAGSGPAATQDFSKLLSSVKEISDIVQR
Description: Inhibition of ABL1 (unknown origin) incubated for 45 to 120 mins in presence of ATP by Kinase-Glo luminescent assay
Series [6] concerns the target Glycogen synthase kinase-3 beta (Homo sapiens, UniProt P49841).
Description: Inhibition of GSK3B (unknown origin) incubated for 45 to 120 mins in presence of ATP by Kinase-Glo luminescent assay
A short description of series [7]: Intrinsic aqueous solubility of the compound in citrate buffer at pH 6 by HPLC-UV/MS analysis.
Series [8] can be described thus: Dissociation constant, pKa of the compound by potentiometric titration method.
In series [9] the target is Vascular endothelial growth factor receptor 2 (Homo sapiens, UniProt P35968).
Vascular endothelial growth factor receptor 2, sequence (P35968 whole entry): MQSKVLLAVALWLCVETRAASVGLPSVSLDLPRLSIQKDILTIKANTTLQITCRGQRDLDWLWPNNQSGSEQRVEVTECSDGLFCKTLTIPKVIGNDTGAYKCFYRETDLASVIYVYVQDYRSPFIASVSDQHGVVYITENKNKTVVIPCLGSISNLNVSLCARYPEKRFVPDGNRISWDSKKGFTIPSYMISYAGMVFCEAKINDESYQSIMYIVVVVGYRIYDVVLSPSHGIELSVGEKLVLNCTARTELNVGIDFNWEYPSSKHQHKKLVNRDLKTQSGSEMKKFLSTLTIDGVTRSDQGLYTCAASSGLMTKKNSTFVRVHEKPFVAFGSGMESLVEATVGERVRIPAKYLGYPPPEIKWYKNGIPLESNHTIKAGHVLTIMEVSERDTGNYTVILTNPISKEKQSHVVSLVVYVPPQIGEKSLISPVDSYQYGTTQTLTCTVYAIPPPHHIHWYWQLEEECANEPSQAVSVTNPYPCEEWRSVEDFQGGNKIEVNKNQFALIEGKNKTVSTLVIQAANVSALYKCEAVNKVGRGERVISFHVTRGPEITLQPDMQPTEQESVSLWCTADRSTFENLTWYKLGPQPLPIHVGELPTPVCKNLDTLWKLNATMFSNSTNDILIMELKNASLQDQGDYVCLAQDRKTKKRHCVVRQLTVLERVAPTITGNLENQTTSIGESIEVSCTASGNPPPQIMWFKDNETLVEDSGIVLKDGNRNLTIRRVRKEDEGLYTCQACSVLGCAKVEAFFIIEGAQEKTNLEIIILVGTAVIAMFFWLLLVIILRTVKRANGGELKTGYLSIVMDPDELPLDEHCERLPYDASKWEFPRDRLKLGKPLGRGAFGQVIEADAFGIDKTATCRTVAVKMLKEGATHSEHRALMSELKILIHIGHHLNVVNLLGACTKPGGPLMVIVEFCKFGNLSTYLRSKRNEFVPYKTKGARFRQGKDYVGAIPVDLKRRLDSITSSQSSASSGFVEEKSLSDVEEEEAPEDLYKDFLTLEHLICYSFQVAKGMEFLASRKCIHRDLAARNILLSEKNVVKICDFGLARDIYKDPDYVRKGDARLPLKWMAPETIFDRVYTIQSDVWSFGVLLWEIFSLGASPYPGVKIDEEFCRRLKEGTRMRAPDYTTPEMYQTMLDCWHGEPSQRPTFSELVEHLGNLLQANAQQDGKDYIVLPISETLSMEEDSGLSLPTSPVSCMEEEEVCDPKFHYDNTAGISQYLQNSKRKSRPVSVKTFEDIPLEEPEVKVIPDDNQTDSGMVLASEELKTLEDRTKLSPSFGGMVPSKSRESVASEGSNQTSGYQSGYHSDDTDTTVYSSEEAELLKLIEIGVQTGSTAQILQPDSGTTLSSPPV
Description: Inhibition of KDR (unknown origin) incubated for 45 to 120 mins in presence of ATP by Kinase-Glo luminescent assay

In brackets after ≈: the same amount, converted by molar mass.

These results are taken from ChEMBL document CHEMBL5331110, “Eyes on Topical Ocular Disposition: The Considered Design of a Lead Janus Kinase (JAK) Inhibitor That Utilizes a Unique Azetidin-3-Amino Bridging Scaffold to Attenuate Off-Target Kinase Activity, While Driving Potency and Aqueous Solubility” (J Med Chem, 2023).

Non-receptor tyrosine-protein kinase TYK2, sequence (P29597 whole entry): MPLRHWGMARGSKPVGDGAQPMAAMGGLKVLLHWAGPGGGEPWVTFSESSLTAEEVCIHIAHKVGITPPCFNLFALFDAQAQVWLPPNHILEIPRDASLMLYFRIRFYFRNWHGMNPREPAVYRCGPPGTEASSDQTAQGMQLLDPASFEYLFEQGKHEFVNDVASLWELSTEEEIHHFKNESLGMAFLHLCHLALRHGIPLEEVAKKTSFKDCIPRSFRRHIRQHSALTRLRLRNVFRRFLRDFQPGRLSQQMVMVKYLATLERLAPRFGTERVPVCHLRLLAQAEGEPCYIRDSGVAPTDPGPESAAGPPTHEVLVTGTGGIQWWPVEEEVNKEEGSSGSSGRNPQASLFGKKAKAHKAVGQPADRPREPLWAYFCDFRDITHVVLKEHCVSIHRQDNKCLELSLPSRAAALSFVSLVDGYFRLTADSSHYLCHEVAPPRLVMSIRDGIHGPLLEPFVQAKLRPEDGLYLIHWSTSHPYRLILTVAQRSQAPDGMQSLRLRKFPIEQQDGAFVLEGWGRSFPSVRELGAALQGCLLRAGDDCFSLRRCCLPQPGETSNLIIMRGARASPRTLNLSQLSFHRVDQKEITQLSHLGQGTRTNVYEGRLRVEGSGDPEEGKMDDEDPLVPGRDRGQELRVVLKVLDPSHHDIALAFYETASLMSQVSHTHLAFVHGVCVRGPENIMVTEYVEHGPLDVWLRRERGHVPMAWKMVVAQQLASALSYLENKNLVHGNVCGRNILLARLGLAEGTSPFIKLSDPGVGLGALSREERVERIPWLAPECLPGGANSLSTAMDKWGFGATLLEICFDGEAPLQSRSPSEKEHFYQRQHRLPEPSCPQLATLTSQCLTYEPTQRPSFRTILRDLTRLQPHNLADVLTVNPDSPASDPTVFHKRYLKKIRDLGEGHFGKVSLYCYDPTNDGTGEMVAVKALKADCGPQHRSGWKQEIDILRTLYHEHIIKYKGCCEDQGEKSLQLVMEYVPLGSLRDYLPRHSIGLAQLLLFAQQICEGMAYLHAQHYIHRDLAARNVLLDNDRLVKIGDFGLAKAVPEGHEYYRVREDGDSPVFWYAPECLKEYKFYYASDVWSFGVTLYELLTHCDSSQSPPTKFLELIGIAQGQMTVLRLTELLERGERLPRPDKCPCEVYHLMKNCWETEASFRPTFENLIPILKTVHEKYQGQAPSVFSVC
Tyrosine-protein kinase JAK1, sequence (P23458 whole entry): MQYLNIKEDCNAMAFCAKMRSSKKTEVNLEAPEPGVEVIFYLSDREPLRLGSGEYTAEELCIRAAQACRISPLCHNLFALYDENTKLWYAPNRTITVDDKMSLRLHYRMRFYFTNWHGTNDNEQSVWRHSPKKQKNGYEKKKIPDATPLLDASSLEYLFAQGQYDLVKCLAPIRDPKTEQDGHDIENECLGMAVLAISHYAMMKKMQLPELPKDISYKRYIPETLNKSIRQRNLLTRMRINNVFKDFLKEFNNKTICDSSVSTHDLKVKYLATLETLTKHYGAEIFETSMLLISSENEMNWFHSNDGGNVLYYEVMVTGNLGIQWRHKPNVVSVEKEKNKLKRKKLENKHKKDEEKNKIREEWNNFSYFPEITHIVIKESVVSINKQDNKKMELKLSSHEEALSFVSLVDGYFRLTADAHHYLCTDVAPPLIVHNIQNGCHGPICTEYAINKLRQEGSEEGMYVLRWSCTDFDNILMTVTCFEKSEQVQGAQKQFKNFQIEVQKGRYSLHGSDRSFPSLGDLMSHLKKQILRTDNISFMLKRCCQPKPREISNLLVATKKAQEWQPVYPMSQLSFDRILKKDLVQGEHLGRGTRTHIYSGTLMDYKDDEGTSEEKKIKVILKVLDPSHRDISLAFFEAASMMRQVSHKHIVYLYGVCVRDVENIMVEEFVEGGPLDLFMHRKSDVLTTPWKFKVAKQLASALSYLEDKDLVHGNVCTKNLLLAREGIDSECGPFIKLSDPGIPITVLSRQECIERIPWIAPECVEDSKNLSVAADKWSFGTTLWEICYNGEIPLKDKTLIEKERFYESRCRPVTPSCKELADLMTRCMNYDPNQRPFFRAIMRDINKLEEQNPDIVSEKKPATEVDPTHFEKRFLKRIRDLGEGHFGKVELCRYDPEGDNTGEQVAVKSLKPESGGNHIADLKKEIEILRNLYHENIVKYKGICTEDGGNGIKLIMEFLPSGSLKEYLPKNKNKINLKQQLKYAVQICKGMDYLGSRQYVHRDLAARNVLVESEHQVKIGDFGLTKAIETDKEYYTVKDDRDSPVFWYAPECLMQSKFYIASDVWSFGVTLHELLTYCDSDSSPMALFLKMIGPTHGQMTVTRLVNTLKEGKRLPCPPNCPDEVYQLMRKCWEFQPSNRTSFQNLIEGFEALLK
Description for Aurora kinase B: Inhibition of AURKB (unknown origin) incubated for 45 to 120 mins in presence of ATP by Kinase-Glo luminescent assay

Regarding `Cc1cnc(Nc2cnn(C)c2)nc1-c1cnn([C@H](CC#N)C2CCCC2)c1`, the IC50 (commonly the concentration at which inhibition is half-maximal) in series [1] is 0.00099 µM; in [2], 0.00098 µM; in series [3], 0.0034 µM; in [4] it was 0.00098 µM; against Aurora kinase B it was 0.007 µM; in series [5], 0.351 µM. In addition, the IC50 in series [6] was found to be 0.395 µM.

As to `Cc1cc(Nc2ncc(C)c(N3CC(O)(C4CC4)C3)n2)sn1`, the IC50 in series [2] was 0.0025 µM; at Aurora kinase B it was 0.00097 µM; in [5], 0.08 µM.

In the case of `Cc1cnc(NC2CCOCC2)nc1-c1cnn(CCC#N)c1`, the IC50 was determined as 50 µM in series [1], 41.9 µM in [2], 50 µM in series [3] and 50 µM in [4]. Further, in series [7], the concentration in solution (solubility) came to 390 µM (≈ 122 µg/mL).

On to `Cc1cnc(Nc2cnn(C)c2)nc1-c1cnn(CCC#N)c1`, for which the IC50 was 0.012 µM in series [1], 0.055 µM in series [3] and 0.0034 µM in [4]. Besides, the concentration in solution in series [7] (solubility) came to 69 µM (≈ 21.3 µg/mL).

With `Cc1cnc(Nc2ccc(N3CCN(C)CC3)cc2)nc1-c1cnn(CCC#N)c1`, the IC50 was determined as 0.013 µM in [1], 0.002 µM in series [2], 0.016 µM in series [3] and 0.002 µM in [4]. In series [7], the solubility (in general, the dissolved amount per volume that the medium holds) turned out to be 33500 µM (≈ 13500 µg/mL).

Take `Cc1cnc(Nc2ccc(N3CCOCC3)cc2)nc1-c1cnn(CCC#N)c1`: the IC50 in series [1] was determined as 0.015 µM; in series [2] it was 0.002 µM; in [3], 0.018 µM; in [4] it was 0.002 µM. The same compound registered a solubility in [7] of 13 µM (≈ 5.06 µg/mL). For the same compound, the pKa (in general, the negative logarithm of the acid dissociation constant) in series [8] came out at 4.2.

The compound `Cc1cc(Nc2ncc(C)c(N3CC(CC#N)(N4CCCC4)C3)n2)sn1` gave an IC50 against Aurora kinase B of 0.022 µM.

Regarding `Cc1cc(Nc2ncc(Cl)c(-c3cnn(CCC#N)c3)n2)sn1`, the IC50 worked out at 0.003 µM in [1] and 0.0015 µM in [4].

`Cc1cc(Nc2ncc(C)c(N3CCN(CC#N)[C@@H](C)C3)n2)sn1` had a solubility in [7] of 16 µM (≈ 5.5 µg/mL). Moreover, the IC50 in series [2] was found to be 0.0015 µM; against Aurora kinase B, 0.022 µM; in series [9] it was 0.03 µM; in series [5], 0.228 µM; in series [6] it was 2.2 µM.

Turning to `Cc1cc(Nc2cc(-c3cnn(CCC#N)c3)c(Cl)cn2)sn1`, the IC50 in series [1] and in [4] was 50 µM in each case.

`Cc1cc(Nc2ncc(C)c(N3CC(CC#N)(OC4CC5(CC5)C4)C3)n2)sn1`: the IC50 in [2] worked out at 0.008 µM; against Aurora kinase B, 0.187 µM; in series [5], 10.3 µM.

In series [7], `Cc1cc(Nc2ncc(C)c(N3CCN(CC#N)CC3)n2)sn1` gave a solubility of 7 µM (≈ 2.31 µg/mL). In addition, the IC50 in series [2] turned out to be 0.0034 µM; against Aurora kinase B, 0.0015 µM; in series [9], 0.041 µM; in series [5], 0.467 µM; in series [6], 1.62 µM.

Take `Cc1cc(Nc2ncc(C)c(N3CC4CCCC(C3)N4CCC#N)n2)sn1`: the solubility in series [7] worked out at 11 µM (≈ 4.22 µg/mL). The concentration for half-maximal inhibition (IC50) in [2] is 0.00098 µM; against Aurora kinase B, 0.0025 µM; in series [9], 0.109 µM; in [5] it was 0.537 µM; in series [6], 0.565 µM.

Turning to `Cc1cnc(Nc2cnn(C)c2)nc1N1CC2CCCC(C1)N2CCC#N`, the IC50 in [1] was found to be 0.002 µM; in [2] it was 0.0034 µM; in [3] it was 0.011 µM; in series [4] it was 0.0034 µM; against Aurora kinase B, 0.019 µM; in series [9], 0.936 µM. The same compound registered an IC50 in series [6] of 9.9 µM.

Consider `Cc1cc(Nc2ncc(C)c(N3CC4CCCC(C3)N4CC#N)n2)sn1`, for which the solubility in [7] was found to be 35 µM (≈ 12.9 µg/mL). Also, the IC50 amounted to 0.0054 µM in [2]; 0.364 µM against Aurora kinase B; 1.58 µM in [9]; 2.03 µM in [5]; 3.24 µM in [6].

As for `Cc1cc(Nc2ncc(C)c(N3CC4CCC(C3)N4CCC#N)n2)sn1`, the IC50 in [2] is 0.00098 µM; at Aurora kinase B, 0.0015 µM; in [9], 0.096 µM; in [6] it was 0.311 µM.

`Cc1cnc(Nc2cnn(C)c2)nc1N1CC2CCCC(C1)N2CC#N` displayed a solubility in series [7] of 7090 µM (≈ 2500 µg/mL). For the same compound, the IC50 in [2] came out at 0.061 µM; against Aurora kinase B it was 0.913 µM; in series [9], 7.39 µM; in series [5] it was 16.8 µM; in series [6] it was 36.4 µM.

Compound `Cc1cc(Nc2ncc(C)c(N3CC4CCC(C3)N4CC#N)n2)sn1` showed a solubility in series [7] of 11 µM (≈ 3.91 µg/mL). For the same compound, the IC50 in series [2] was found to be 0.0039 µM; against Aurora kinase B, 0.004 µM; in [9] it was 0.221 µM; in [5], 1.31 µM; in series [6], 1.68 µM.

Consider `Cc1cc(Nc2ncc(C)c(N3CC(CC#N)(N4CCCCC4)C3)n2)sn1`, for which the IC50 turned out to be 0.0044 µM in series [2] and 8.43 µM in [5].

With `Cc1cc(Nc2ncc(C)c(N3CC(CC#N)C3)n2)sn1`, the IC50 in series [2] amounted to 0.009 µM; against Aurora kinase B, 0.006 µM.

As for `Cc1cc(Nc2ncc(C)c(-c3cnn(CCC#N)c3)n2)sn1`, the IC50 in series [1] worked out at 0.003 µM; in series [2] it was 0.002 µM; in [3], 0.014 µM; in [4] it was 0.0015 µM; against Aurora kinase B it was 0.0025 µM; in series [5], 0.207 µM.

In the case of `Cc1cnc(NCCN2CCOCC2)nc1-c1cnn(CCC#N)c1`, the IC50 is 50 µM in [1], 19.5 µM in [2] and 50 µM in series [3].

On to `Cn1cc(Nc2nccc(-c3cnn(CCC#N)c3)n2)cn1`, for which the IC50 was found to be 0.538 µM in series [1], 0.027 µM in series [2] and 0.049 µM in series [4].

In the case of `Cc1cc(Nc2ncc(C)c(N3CC(C4CC4)C3)n2)sn1`, the results for the IC50 (in series [2]; at Aurora kinase B) were 0.0034 µM and 0.021 µM, respectively.

As for `Cc1cc(Nc2ncc(C)c(N3CCC(CC#N)CC3)n2)sn1`, on Aurora kinase B, half-maximal inhibition (IC50) was put at 0.0011 µM.

On to `Cc1cc(Nc2ncc(C)c(N3CC(CC#N)(N4CCN(C)CC4)C3)n2)sn1`, for which the IC50 in series [3] worked out at 0.07 µM; in series [4], 0.0029 µM; on Aurora kinase B, 0.441 µM; in series [5], 21.4 µM.

Take `Cc1cc(Nc2ncc(C)c(N3CC(CCC#N)C3)n2)sn1`: the results for the IC50 (in series [2]; on Aurora kinase B; in series [5]) were 0.013 µM, 0.003 µM and 0.568 µM, respectively.

`Cc1cnc(Nc2ccccc2)nc1-c1cnn(CCC#N)c1`: the IC50 in series [1] turned out to be 0.05 µM; in [2], 0.006 µM; in [3] it was 0.143 µM; in [4], 0.011 µM. In addition, the solubility in series [7] was 52 µM (≈ 15.8 µg/mL).

On to `Cc1cc(Nc2ncc(C)c(N3CCN(CC#N)C(C)C3)n2)sn1` (stereo not given), for which the solubility in series [7] turned out to be 19 µM (≈ 6.53 µg/mL). For the same compound, the IC50 in series [2] is 0.003 µM; on Aurora kinase B, 0.003 µM; in [9] it was 0.055 µM; in series [5] it was 1.24 µM; in series [6], 1.36 µM.

As to `Cc1cnc(Nc2cnn(C)c2)nc1N1CC(CC#N)(N2CCN(C)CC2)C1`, the IC50 in series [2] worked out at 0.034 µM; against Aurora kinase B it was 0.764 µM; in series [5] it was 50 µM.
